Test results from patent US8017348B1, “Assay for Parkinson's Disease therapeutics” (Elan Pharma International Limited, priority 2005, dated 2011).
Where two headings read alike, the source gives them in different places.

Key:
[1] = system: Parkin; assay: GFPu assay in HEK293 cells transfected with wild type Parkin (aggresome formation / proteasome function); format: cell-based, human; conditions: for aggresome formation (qualitative, GFPu screen): LOPAC screen hits
Description: A summary of the finalized automation scheme is outlined in FIG. 12. Briefly, cells were manually transfected with Parkin using the Fugene Reagent (Roche) and then incubated for three hours at 37° C. […] Compounds were then added to the cell plate at a final concentration of 10 uM using the Multimek™ Automated Pipettor. Compounds were incubated with cells for 45 hours at 37° C. and then the media was gently aspirated with the Multimek. A mixture of 1 ug/ml Hoechst dye and 4% paraformaldehyde were then added to the cells for 40 minutes at room temperature using the Titertek Multidrop™ Lab System. Cell plates were subsequently washed using the Tecan PowerWasher and then read on the Cellomcis ArrayScan. A detailed protocol outlining this process step by step is shown in Example 8.
This example describes a protocol for the GFPu Assay in 96-well format. It will be appreciated that the protocol can be readily modified for other multi-well formats and that certain parameters can vary. […] Dose-response curves are generated using methods known in the art. Typically, serial 2-fold or 3-fold dilutions (usually in the range 10 uM to 50 pM) are tested.
1) HEK293 cells stably expressing GFP are cultured in DMEM containing 10% FBS, glutamine 2 mM and G418 sulfate at 600 μg/ml.
2) HEK 293 cells are harvested using PBS containing 5 mM EDTA. 180 μl of HEK293 cells at 67,000 cells/ml are then plated onto Costar PDL coated plates (#3667). After seeding cells on the plate, we let them sit for 30 minutes at room temperature in the tissue culture hood before placing them back into the incubator. This treatment may help reduce edge effects and is optional.
3) Incubate the plate overnight at 37° C./5% CO2 in the incubator.
4) A typical transfection cocktail is created as follows: Mix 50 ml of serum free DMEM with 1.087 ml of Fugene and wait 5 minutes at room temperature. Next add 375 μg of Parkin DNA or control vector, gently mix and incubate 35-45 minutes at room temperature.
5) Add 20 μl of transfection cocktail to each well of the plate and place back in the incubator for three hours at 37° C.
6) Add 20 μl of compound to all relevant wells. Final in-well concentration for compound is 10 μM. The DMSO concentration final in-well is 0.2%. Compound plates are diluted using serum free DMEM.
7) Plates are then incubated for 45 hours at 37° C. and 5% CO2.
8) Aspirate media out of wells.
9) Add […] a mixture containing 1 μg/ml Hoechst dye and 4% paraformaldehyde in 0.1M NaPhosphate buffer for 40 minutes at room temperature.
10) Wash with PBS containing calcium and magnesium and leave 200 μl in well.
11) Read on the ArrayScan using the Target Activation Bioapplication. […]
(§1) Dose response curves were generated by exposing cells to compounds at various concentrations. […] “Hill” refers to the Hill Slope.

[2] = system: HEK293 cells; assay: Cytotoxicity (cell count) in HEK293 cells; conditions: for cytotoxicity: HEK293 cells
Text: In terms of charactering cytotoxicity, compounds were given a low rating if the cell count was >75% of control levels, a medium rating if the cell count was between 50 and 75% of control wells, and a high rating if the cell count was less than 50% of control levels.

[3] = system: CFTR; assay: GFPu assay selectivity screen, cells transfected with CFTR; format: cell-based; conditions: 10 uM to about 78 nM
Text: (§2) The first is the RING finger ligase NRDP1 as a molecule structurally and functionally similar to Parkin. The second is the Cystic Fibrosis Transmembrane Conductance Regulator (CFTR) as a molecule that is a twelve-pass membrane channel protein, and structurally not related to Parkin.
as §1

[4] = system: NRDP1; assay: GFPu assay selectivity screen, cells transfected with NRDP1; format: cell-based; conditions: for IC50: GFPu assay, NRDP1 transfected cells, 10 uM to about 78 nM, read-out: NRDP IC50
Text: as §2, §1

[5] = system: aldehyde dehydrogenase; conditions: at higher concentrations (25-50 uM); cited from earlier work
[6] = system: cAMP dependent protein kinase; conditions: at higher concentrations (25-50 uM); cited from earlier work
[7] = target: T1, 3-PI-dependent kinase 1 (Homo sapiens, UniProt O15530); conditions: at higher concentrations (25-50 uM); cited from earlier work
T1 sequence (O15530 1-556): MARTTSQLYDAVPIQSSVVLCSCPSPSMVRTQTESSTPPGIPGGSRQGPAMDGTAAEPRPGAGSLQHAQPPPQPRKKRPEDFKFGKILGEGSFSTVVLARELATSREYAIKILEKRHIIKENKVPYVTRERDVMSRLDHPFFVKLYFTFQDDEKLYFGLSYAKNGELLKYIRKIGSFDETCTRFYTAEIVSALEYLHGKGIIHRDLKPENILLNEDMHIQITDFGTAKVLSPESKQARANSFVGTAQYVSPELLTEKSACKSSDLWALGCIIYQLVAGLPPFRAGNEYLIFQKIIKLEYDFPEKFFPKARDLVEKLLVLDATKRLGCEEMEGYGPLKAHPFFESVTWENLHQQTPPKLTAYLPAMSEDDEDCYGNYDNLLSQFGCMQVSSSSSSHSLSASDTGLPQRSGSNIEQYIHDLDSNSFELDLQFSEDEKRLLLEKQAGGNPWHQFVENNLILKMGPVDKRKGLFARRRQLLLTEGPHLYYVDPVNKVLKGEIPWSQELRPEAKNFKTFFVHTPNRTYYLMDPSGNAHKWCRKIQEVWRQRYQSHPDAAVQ

[8] = system: aggresome formation; conditions: Johnston et al., 1998; cited from earlier work
[9] = Homo sapiens, HEK293, GFPu assay, Parkin transfected cells, eight 2-fold dilutions 10 uM to about 78 nM, read-out: Parkin IC50
[10] = dose response, eight 2-fold dilutions 10 uM to about 78 nM
[11] = Parkin expressing HEK293 cells, read-out: IC50 in the GFPu assay
[12] = Homo sapiens, Parkin expressing HEK293 cells, read-out: IC50 in the GFPu assay

Structure (SMILES)	IC50 [1, 9] [µM]	aggresome formation (qualitative, GFPu screen) [1]	IC50 [3] [µM]	IC50 [4] [µM]	TC50 ([2]; human) [µM]	IC50 [1, 12] [µM]	also measured
O=C(O)CCCc1ccc(N(CCCl)CCCl)cc1 [ELN29018, chlorambucil]	7.25	decreased aggresome formation	> 10				cytotoxicity [2]: did not exhibit much cytotoxicity; TC50 [2, 10]: >10; NRDP % @ 10 ([4]; @ 10): 32% @ 10
O=c1[nH]cc(F)c(=O)[nH]1 [ELN29019, 5-fluoruracil]			> 10	1.6			IC50 [1, 11]: 9 µM; TC50 [2]: > 10 µM
COC(=O)Nc1nc2ccc(C(=O)c3cccs3)cc2[nH]1 [ELN475312, nocodazol]	1.07	inhibitors of aggresome formation	> 10	> 10	< 0.078		
Nc1ncn([C@@H]2O[C@H](CO)[C@@H](O)[C@H]2O)c(=O)n1 [ELN476201, 5-azacytidine]	5.36		> 10	5.81	> 10	5.36	
O=C(N[C@@H](Cc1ccccc1)C(=O)CCl)OCc1ccccc1 [ELN476309, ZPCK]			3.88	0.26			IC50 ([1]; GFPu assay, Parkin transfected cells, eight 2-fold dilutions 10 uM to about 78 nM, read-out: Parkin IC50): 4.12 µM; IC50 [1, 11]: 4.1 µM; TC50 [2]: 10 µM
COc1cc2c(c(OC)c1OC)-c1ccc(OC)c(=O)cc1[C@@H](NC(C)=O)CC2 [ELN476311, colchicine]		inhibitors of aggresome formation					TC50 [2, 10]: <0.078
N[C@@H](Cc1ccc(N(CCCl)CCCl)cc1)C(=O)O [ELN476469, melphalan]	6.06	decreased aggresome formation	> 10	> 10			cytotoxicity [2]: did not exhibit much cytotoxicity; TC50 [2, 10]: >10
O=C1c2c(O)ccc(O)c2C(=O)c2c(NCCNCCO)ccc(NCCNCCO)c21 [ELN476491, mitoxantrone]	< 0.078		1.58	1.5	6.53	< 0.078	
O=c1c(O)c(-c2cc(O)c(O)c(O)c2)oc2cc(O)cc(O)c12 [ELN476493, myricetin]	> 10		> 10	> 10	> 10		inhibition at 10 µM ([1]; Homo sapiens, HEK293, at 10 μM, LOPAC screen): 59%; % inhibition upon dose-response curve follow-up ([1]; dose-response curve follow-up, 40% inhibition threshold): < 40%
COC[C@H]1OC(=O)c2coc3c2[C@@]1(C)C1=C(C3=O)[C@@H]2CCC(=O)[C@@]2(C)C[C@H]1OC(C)=O [ELN476646, Wortmannin]	0.75		> 10	> 10	1.9	0.75	
COc1cc([C@@H]2c3cc4c(cc3[C@H](O)[C@H]3COC(=O)[C@H]23)OCO4)cc(OC)c1OC [ELN476767, podophyllotoxin]	< 0.078	inhibitors of aggresome formation	> 10	> 10		< 0.078	TC50 [2, 10]: <0.078
CC(=O)O[C@H]1C(=O)[C@@]2(C)[C@H]([C@H](OC(=O)c3ccccc3)[C@]3(O)C[C@H](OC(=O)[C@H](O)[C@@H](NC(=O)c4ccccc4)c4ccccc4)C(C)=C1C3(C)C)[C@]1(OC(C)=O)CO[C@@H]1C[C@@H]2O [ELN476780, taxol]	< 0.156	inhibitors of aggresome formation	> 10	> 10	< 0.078	< 0.078	
CN(Cc1cnc2nc(N)nc(N)c2n1)c1ccc(C(=O)N[C@@H](CCC(=O)O)C(=O)O)cc1 [ELN476809, methotrexate]	< 0.078		> 10	0.156	> 10	< 0.078	
Cc1ccc(S(=O)(=O)N[C@@H](Cc2ccccc2)C(=O)CCl)cc1 [ELN477056, TPCK]			> 10	5.47			IC50 [1, 11]: 9.25 µM; TC50 [2, 10]: >10
CC[C@]1(O)C[C@@H]2CN(CCc3c([nH]c4ccccc34)[C@@](C(=O)OC)(c3cc4c(cc3OC)N(C)[C@H]3[C@@](O)(C(=O)OC)[C@H](OC(C)=O)[C@]5(CC)C=CCN6CC[C@]43[C@@H]65)C2)C1 [ELN477062, vinblastine]	< 0.078	inhibitors of aggresome formation	> 10	> 10	< 0.078		
CC[C@]1(O)C[C@H]2CN(CCc3c([nH]c4ccccc34)[C@@](C(=O)OC)(c3cc4c(cc3OC)N(C=O)[C@H]3[C@@](O)(C(=O)OC)[C@H](OC(C)=O)[C@]5(CC)C=CCN6CC[C@]43[C@@H]65)C2)C1 [ELN477063, vincristine]	< 0.078	inhibitors of aggresome formation	> 10	> 10	< 0.078		
Cc1ccc(S(=O)(=O)N[C@@H](Cc2ccccc2)C(=O)CCl)cc1 [TPCK]							inhibition of aldehyde dehydrogenase [5]: inhibit; inhibition of cAMP dependent protein kinase [6]: inhibit; inhibition of 3-PI-dependent kinase 1 [7]: inhibit
COc1cc2c(c(OC)c1OC)-c1ccc(OC)c(=O)cc1[C@@H](NC(C)=O)CC2 [colchicine]							aggresome formation (literature) [8]: completely abrogated aggresome formation
COC(=O)Nc1nc2ccc(C(=O)c3cccs3)cc2[nH]1 [nocodazol]							aggresome formation (literature) [8]: completely abrogated aggresome formation
CC[C@]1(O)C[C@@H]2CN(CCc3c([nH]c4ccccc34)[C@@](C(=O)OC)(c3cc4c(cc3OC)N(C)[C@H]3[C@@](O)(C(=O)OC)[C@H](OC(C)=O)[C@]5(CC)C=CCN6CC[C@]43[C@@H]65)C2)C1 [vinblastine]							aggresome formation (literature) [8]: completely abrogated aggresome formation
